We go through 3 substances from patent publication US6391571B1, “Recombinant inactive avidin mutants” (Roche Diagnostics GmbH, priority 1997, dated 2002).

Some results are limits rather than exact numbers.

The conditions of experiment [1]: native polypeptide, non-covalent complex with biotin; cited from earlier work.
The test system of experiment [2] is monobiotinylated Fab' antibody fragment. Nature of the experiment: Affinity of streptavidin muteins to biotin derivatives, BIAcore system. Format: binding. The note with it: CM5 biosensor, 25° C. On the procedure:
The affinity of the streptavidin muteins to biotin derivatives (constants Kon, Koff and KA) was determined in comparison to core streptavidin (wild type streptavidin) using the BIAcore system from the Pharmacia Co. For this the respective streptavidin samples were immobilized on the surface of biosensor chips (CM5 biosensor). The surface loading was selected in such a way that a measurement signal of 500 to 2000 resonance units (rU) was generated. The association kinetics were recorded for 3 min in each case at 25° C. and with 6 concentrations (12.5, 25, 50, 100, 200 and 400 nmol/l ) of a monobiotinylated Fab' antibody fragment. In order to investigate the influence of the reverse binding of the antibody, the dissociation kinetics in the absence and presence of 10 μg/ml core streptavidin were compared. The specificity of the binding was shown by an experiment with the same body in a non-biotinylated form (negative control).
The binding constants were determined for the purified streptavidin muteins as well as for streptavidin muteins cross-linked with a polymer (streptavidin-mutein […] serum albumin conjugates, preparation: EP-A-0 092).
On the technique in general: In SPR one partner is held on a chip, and binding of the other changes the refractive index at the surface.

As for “avidin: native avidin, amino acid sequence SEQ ID NO.4”, in experiment [1], the “binding affinity to biotin (KA)” value is on record as “about 10^15 l/mol”.

Consider “streptavidin: native streptavidin, protein sequence SEQ ID NO.2”, for which, in experiment [1], the “binding affinity to biotin (KA)” value is “about 10^15 l/mol”.

As for “wild-type: recombinant core streptavidin (shortened streptavidin), SEQ ID NO.16, produced per WO 93/09144”, in experiment [2] (monobiotinylated Fab'), the KA is on record as >10^10 1/mol and the Koff was <10^−5 1/s. This substance also returned a t/2 diss in experiment [2] (monobiotinylated Fab', cell prints h) of more than 20 h. Also, the Kon in experiment [2] (streptavidin sample immobilized, 12.5-400 nmol/l monobiotinylated Fab') is reported as 2.2.10^5 1/mol.s.
